Article PMC7411735, “New Terpendole Congeners, Inhibitors of Sterol O-Acyltransferase, Produced by Volutella citrinella BF-0440” (Molecules, 2020)
Like-named read-outs stand apart in the source and are kept apart here.

What was measured:
human SOAT2 [1] = biological target: T1, human SOAT2 (Homo sapiens, UniProt O75908); test: SOAT2 activity in SOAT2-CHO cells ([14C]CE formation from [1-14C]oleic acid); assay type: cell-based; conditions: for IC50: n ≧ 3
T1 construct: expressed in transfected cells; host or cells: CHO AC29 (SOAT-deficient) cells
T1 sequence (O75908 1-522): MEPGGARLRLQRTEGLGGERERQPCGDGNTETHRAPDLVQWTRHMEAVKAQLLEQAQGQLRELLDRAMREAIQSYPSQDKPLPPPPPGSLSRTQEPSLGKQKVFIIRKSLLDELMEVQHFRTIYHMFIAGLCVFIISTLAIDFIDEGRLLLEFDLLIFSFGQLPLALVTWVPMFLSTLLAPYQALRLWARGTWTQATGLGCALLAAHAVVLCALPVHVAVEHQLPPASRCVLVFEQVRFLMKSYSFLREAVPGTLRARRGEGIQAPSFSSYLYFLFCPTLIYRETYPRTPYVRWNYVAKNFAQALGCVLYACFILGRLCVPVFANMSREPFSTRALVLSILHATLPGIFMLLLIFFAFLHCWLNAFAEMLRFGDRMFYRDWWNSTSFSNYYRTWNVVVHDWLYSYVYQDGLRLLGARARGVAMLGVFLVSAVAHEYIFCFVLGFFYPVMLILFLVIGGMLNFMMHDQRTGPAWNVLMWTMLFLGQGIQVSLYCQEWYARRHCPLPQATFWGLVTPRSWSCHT
Method: (§1) CHO cells (AC29 cells, SOAT-deficient cells) expressing the SOAT1 or SOAT2 genes from human were cultured using a previously described method [17].
(§2) Assays for human SOAT1 and SOAT2 activities using SOAT1- and SOAT2-CHO cells were performed using our established method [11, 17]. […] At least 80% confluent cells were used for assays. […] After a 6-h incubation at 37 °C in 5% CO2, medium was removed, and the cells in each well were washed twice with PBS. Cells were lysed by adding 0.25 mL of 10 mM Tris-HCl (pH 7.5) containing 0.1% (w/v) sodium dodecyl sulfate, and [^14C]CE was analyzed using a FLA-7000 analyzer (Fuji Film). In this cell-based assay, [^14C]CE was produced by the reaction of SOAT1 or SOAT2. SOAT inhibitory activity (%) is defined as ([1-^14C]CE-drug/[^14C]CE-control) × 100.

human SOAT1 = biological target: T2, human SOAT1 (Homo sapiens, UniProt P35610); test: SOAT1 activity in SOAT1-CHO cells ([14C]CE formation from [1-14C]oleic acid); assay type: cell-based; conditions: for IC50: n ≧ 3
T2 construct: expressed in transfected cells; host or cells: CHO AC29 (SOAT-deficient) cells
T2 sequence (P35610 1-550): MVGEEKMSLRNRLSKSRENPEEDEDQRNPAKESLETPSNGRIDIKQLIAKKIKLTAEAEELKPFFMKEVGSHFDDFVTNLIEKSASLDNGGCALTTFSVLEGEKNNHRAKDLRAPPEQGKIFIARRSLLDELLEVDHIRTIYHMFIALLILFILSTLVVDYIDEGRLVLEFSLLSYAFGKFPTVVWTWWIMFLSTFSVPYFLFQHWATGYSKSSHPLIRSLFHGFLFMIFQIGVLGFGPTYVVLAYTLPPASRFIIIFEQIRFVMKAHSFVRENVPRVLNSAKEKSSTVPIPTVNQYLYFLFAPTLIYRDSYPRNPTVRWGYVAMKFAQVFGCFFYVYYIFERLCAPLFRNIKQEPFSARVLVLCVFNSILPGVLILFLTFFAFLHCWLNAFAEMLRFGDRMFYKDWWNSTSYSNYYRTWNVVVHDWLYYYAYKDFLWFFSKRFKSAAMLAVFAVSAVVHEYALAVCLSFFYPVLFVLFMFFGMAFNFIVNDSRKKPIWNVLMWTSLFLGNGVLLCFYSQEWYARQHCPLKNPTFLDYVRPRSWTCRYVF
Method: as §1, §2

human SOAT2 [2] = tested on: human SOAT2; set-up: method as in PMID 32467602; conditions: classified by SI; cited from earlier work
SOAT2 = tested on: SOAT2; set-up: method as in PMID 17390588; conditions: cited from earlier work
human SOAT2 [3] = test: SOAT2 activity in SOAT2-CHO cells ([14C]CE formation from [1-14C]oleic acid); assay type: cell-based; conditions: classified by SI
Method: as §1, §2

[4] = tested on: African green monkey SOAT1; set-up: method as in PMID 16629409; conditions: African green monkey SOAT1-CHO cells; cited from earlier work
[5] = tested on: African green monkey SOAT2; set-up: method as in PMID 16629409; conditions: cited from earlier work
human SOAT2 [6] = biological target: T1, human SOAT2; set-up: method as in PMID 32467602; conditions: SOAT2-CHO cells; cited from earlier work
[7] = SAR comparison: 4 vs 6 (R5), 8 vs 11 (R6)
[8] = IC50 SOAT2, human SOAT2-CHO cells
[9] = IC50 SOAT1, human SOAT1-CHO cells

Compound	Type of inhibitors (human SOAT2 [3])	IC50 (human SOAT2 [1]; [8]) [µM]	IC50 (human SOAT1; [9]) [µM]	further results
CC(C)=CCc1cccc2[nH]c3c(c12)C[C@@H]1CC[C@@]2(O)[C@@]45O[C@@H]4[C@H](O)[C@@H](C(C)(C)O)O[C@H]5CC[C@]2(C)[C@@]31C [Compound 10, tolypocladin A]	–	–	–	IC50 (human SOAT2 [1]; human SOAT2-CHO cells, read-out: IC50 SOAT2): > 18 µM; IC50 (human SOAT1; human SOAT1-CHO cells, read-out: IC50 SOAT1): > 18 µM
CC(C)=C[C@H]1O[C@H]2[C@H]3O[C@@]34[C@H](CC[C@@]3(C)[C@@]4(O)CC[C@H]4C[C@@]5(O)c6c(CC7OC7(C)C)cccc6N[C@@]5(O)[C@@]43C)O[C@@H]2C(C)(C)O1 (stereo partly shown) [Compound 4, voluhemin A]	–	–	–	enhancement of SOAT2 inhibitory activity relative to comparison compound (human SOAT2 [1]; [7]): approximately 10 fold; Type of inhibitors (human SOAT2 [2]): dual (Dual with -1.0 < SI < +1.0); enhancement of SOAT1 inhibitory activity relative to comparison compound (human SOAT1; [7]): approximately 10 fold
pyripyropene A	–	–	–	SOAT isozyme selectivity (SOAT2): highly selective SOAT2 inhibitor
CC(C)=CCOC(C)(C)[C@H]1O[C@H]2CC[C@@]3(C)[C@@H](CC[C@H]4Cc5c([nH]c6ccccc56)[C@@]43C)[C@]23O[C@@H]3[C@@H]1O [Compound 8, terpendole D]	dual (Dual with -1.0 < SI < +1.0)	2.1	0.8	–
CC(C)=CC1OC2C(OC3CCC4(C)C(C)(O)C(CC5(O)C(=O)Nc6cccc(CC7OC7(C)C)c65)CCC4(O)C34OC24)C(C)(C)O1 (stereo not shown) [Compound 1, Terpendole N]	–	–	–	IC50 (human SOAT2 [1]; read-out: IC50 SOAT2, human SOAT2-CHO cells): > 14 µM; IC50 (human SOAT1; read-out: IC50 SOAT1, human SOAT1-CHO cells): > 14 µM
CC(C)=CCOC(C)(C)[C@H]1O[C@H]2CC[C@@]3(C)[C@@](O)(CC[C@H]4Cc5c([nH]c6ccccc56)[C@@]43C)[C@]23O[C@@H]3[C@@H]1O [Compound 11, terpendole J]	dual (Dual with -1.0 < SI < +1.0)	10.7	18.6	–
CC(C)=C[C@H]1O[C@H]2[C@H]3O[C@@]34[C@H](CC[C@@]3(C)[C@@]4(O)CC[C@H]4Cc5c([nH]c6ccccc56)[C@@]43C)O[C@@H]2C(C)(C)O1 [Compound 7, terpendole C]	dual (Dual with -1.0 < SI < +1.0)	2.2	2	–
CC(C)=CCOC(C)(C)[C@H]1O[C@H]2CC[C@@]3(C)[C@]4(O[C@H]4C[C@H]4Cc5c([nH]c6ccccc56)[C@@]43C)[C@]23O[C@@H]3[C@@H]1O [Compound 3, terpendole P]	dual (Dual with -1.0 < SI < +1.0)	6.9	5.9	–
CC(C)=CCc1c([C@H](O)C2OC2(C)C)ccc2[nH]c3c(c12)C[C@@H]1CC[C@@]2(O)C(C)(C)C(=O)CC[C@]2(C)[C@@]31C (stereo partly shown) [Compound 12, sespendole]	–	–	–	IC50 [4]: 12 µM; IC50 ([5]; African green monkey SOAT2-CHO cells): 6.5 µM; Type of inhibitors ([5]; classified by SI, African green monkey SOAT1 and SOAT2-CHO cells): dual (Dual with -1.0 < SI < +1.0)
CC(C)=CCc1cccc2[nH]c3c(c12)C[C@@H]1CC[C@@]2(O)[C@@]45O[C@@H]4[C@@H]4O[C@H](C=C(C)C)OC(C)(C)[C@H]4O[C@H]5CC[C@]2(C)[C@@]31C [Compound 9, terpendole L]	dual (Dual with -1.0 < SI < +1.0)	1.8	6.8	–
CC(C)=C[C@H]1O[C@H]2[C@H]3O[C@@]34[C@H](CC[C@@]3(C)[C@@]4(O)CC[C@H]4Cc5c([nH]c6cccc(CC7OC7(C)C)c56)[C@@]43C)O[C@@H]2C(C)(C)O1 (stereo partly shown) [Compound 2, terpendole O]	dual (Dual with -1.0 < SI < +1.0)	2.4	2.8	–
CC(C)=C[C@H]1O[C@H]2[C@H]3O[C@@]34[C@@H](O[C@@H]2C(C)(C)O1)[C@H](O)C[C@@]1(C)[C@@]4(O)CC[C@H]2C[C@@]3(O)c4c(CC5OC5(C)C)cccc4N[C@@]3(O)[C@@]21C (stereo partly shown) [Compound 6, NK12838]	–	–	–	Type of inhibitors (human SOAT2 [2]): dual (Dual with -1.0 < SI < +1.0); IC50 (human SOAT2 [6]): 3.5 µM
